Measurements from patent publication US12208159B2, “Compositions, methods and kits for treating a contact lens” (University of Houston System, priority 2016, dated 2025).
“And” between values parts separate entries of the source, which are not always exact repeats. Identical values can stand only once.

Tests used:
[1] = Loading of molecules into commercial contact lenses (Lotrafilcon B); type: physicochemical; details: 24 hours at room temperature, listed as FITC-C8F15
Description: (§1) Briefly, commercial lenses are individually immersed in wells of a 24 well plate, each containing 1 mL PBS solution of FITC-F ([…]), FITC ([…]), Cip (100 mM) or F-Cip (100 mM), and incubated for 18 h. Then the lenses are washed with PBS three times for 5 min each. All incubation and wash solutions are collected and the amount of each compound is quantified by spectrophotometry. Standard curves are generated with seven standard samples with known concentrations for each individual compound of interest. Specifically, fluorescent compounds FITC and FITC-F are quantified by fluorescence emission at 520 nm (lex. 485 nm), and Cip and F-Cip are quantified by absorbance at 275 nm. The amount of each compound in the above collected solutions is then measured with the standard curve. The amount of the compound incorporated into lenses was determined by subtracting the amount in solution from the total amount added initially.
(§2) Commercial lenses of the above 4 types were removed from blister packs, and blotted gently to remove excess solution. Contact lenses were placed individually into glass vials and immersed in 1 mL of FITC-C8F15 or FITC solution (15.6 μM in phosphate buffered saline) for 24 hours at room temperature. At the end of incubation, lenses were washed three times using phosphate buffered saline. […]

[2] = Time course release of individual compounds from contact lenses; type: physicochemical; details: Comfilcon A
Description: The modified Comfilcon A lenses are placed into individual wells of a 24 well plate with 1 mL PBS in each well at room temperature. The PBS solution is replaced with fresh PBS every hour for up to 8 h or 15 h, or every 10 min for 2 h or 6 h. The amount of fluorescent compound released into the collected PBS aliquots is quantified spectrophotometrically based on the above standard curve. The amount of F-Cip released into the collected PBS aliquots is quantified using LC-MS (LCQ Deca XP plus with Surveyor LC, Thermo Fisher, Waltham, MA) with electrospray ionization in positive ion mode. Samples ([…] each) are loaded onto the analytical column at […] (Kinetex XB-C18, 2.×50 mm, […], Phenomenex) with the following gradient: 0-3 min, 10-75% (B); 3-7.5 min, 75-91% (B). The mobile phase consists of (A) water containing 0.1% formic acid and (B) acetonitrile containing 0.1% formic acid. Mass spectrometric parameters are as follows: 250° C. capillary temperature, 45 units sheath gas, 10 units aux gas and 4.5 kV spray voltage. […]

[3] = Loading of molecules into commercial contact lenses (Comfilcon A); type: physicochemical
Description: as §1, §2

P. aeruginosa 19660 [4] = test: Ex vivo porcine eye infection model, antimicrobial activity of loaded contact lenses; design: species or system Pseudomonas aeruginosa (porcine eyes); details: Comfilcon A lenses modified with the compound, on infected scratched porcine eyes, 12 h
Description: Upon arrival, eyelids and connective tissues are removed and the porcine eyes are sanitized using 5% penicillin/streptomycin (Sigma-Aldrich, St. Louis, MO) for 1 h followed by washing thrice with PBS. Six scratch wounds with a 3×3 crosshatch pattern of length about 1 cm are created on each cornea using a 27G needle. The eyes are placed into holders and 100 ml of bacterial solution containing 10^6 CFU (see “Antibacterial activity of F-Cip” section discussed above) applied to each cornea. The eyes are left at room temperature in a biosafety cabinet for 5 h. After rinsing with 10 mL of PBS, control and modified Comfilcon A contact lenses are placed individually onto the eyes. […] One eye without scratches but incubated with bacteria served as an additional control. A custom-made apparatus is used to flow culture medium over the surface of the porcine eyes. […] Then 100 ml of the bacterial suspension from each sample was taken out and added into a 96-well plate in triplicate, and absorbance at 620 nm was measured and plotted as percentage of bacterial growth inhibition compared to the corneas infected with bacteria but without any treatments. […]

P. aeruginosa 19660 [5] = test: In vitro antimicrobial activity of F-Cip-loaded Comfilcon A contact lenses; type: cell-based, Pseudomonas aeruginosa; details: Comfilcon A lenses loaded with the compound
[6] = tested on: Pseudomonas aeruginosa (PA) ATCC 19660; test: Antibacterial activity of F-Cip (growth inhibition, absorbance at 620 nm); type: cell-based; details: ATCC19660, P. aeruginosa ATCC 19660, 18 h at 37° C., n > 3
Description: The strain is inoculated and grown at 37° C. for 18 h. The bacterial suspension ([…]) is added into 100 mL of nutrient broth and incubated for 2 h to reach a log growth phase. The resulting bacterial suspension is adjusted to a concentration of ˜10^7 cfu/mL and […] are placed into each well of a 96 well plate. Fifty microliters of F-Cip solution are added into the 96 well plate and incubated at 37° C. for 18 h. The inhibition of microbial growth is determined by measuring the absorbance at 620 nm.

[7] = Lens transparency after modification (light transmission); details: Comfilcon A lenses embedded with the compound
[8] = tested on: human telomerase corneal epithelial cells (hTCEpi); type: cell-based
Description: Telomerase modified human corneal epithelial cells were seeded into wells of a 96 well plate with […] KGM-2 medium (Lonza Ltd, Switzerland) and incubated at 37° C. until ˜80% confluence. […] Cells treated with 0.05% benzalkonium chloride (BAC) and without any treatment served as controls. The plate was incubated at 37° C. for 18 h, and cell viability was determined using a cell counting kit-8 assay. […] All lenses are taken out, and cell viability was determined using a cell counting kit-8 assay (Dojindo Molecular Technologies, Inc. Japan).

## O=C(O)c1cc(NC(=S)NCC(F)(F)C(F)(F)C(F)(F)C(F)(F)C(F)(F)C(F)(F)C(F)(F)F)ccc1-c1c2ccc(=O)cc-2oc2cc(O)ccc12 [Compound 6]
[1]
  amount attached relative to the amount of FITC attached: 6.5 times and 5 times
[2]; solution exchange rate 1 mL/h
  duration of nearly linear release: 6 h
  release profile: sustained profile
  release rate: 10.5 % per hour
[2]; solution exchange rate 1 mL/h, 15 h
  release reached at 15 h: ~90%
[2]; solution exchange rate 6 mL/h
  duration of sustained linear release: 120 min
  release rate: 26.5 % per hour
  time to reach release plateau: 270 min
[3]; Comfilcon A, 24 hours at room temperature, listed as FITC-C8F15
  amount attached relative to the amount of FITC attached: 11 times and 9 times

## O=C(O)c1cn(C2CC2)c2cc(N3CCNCC3)c(F)cc2c1=O [Compound 12, Ciprofloxacin]
P. aeruginosa 19660 [4]
  bacterial growth inhibition: 37.5±8.2%
P. aeruginosa 19660 [5]
  growth inhibition: 35.2%
[6]
  IC50: 130 ± 35 nM
[7]; between 200 nm and 800 nm
  transmission profile compared with fresh unmodified lens: significantly overlap
[7]; between 400 nm and 750 nm
  Transmission of modified lenses: about 100%
[2]; solution exchange rate 1 mL/h
  release at plateau: ~60%
  release profile: typical burst release profile
  time to reach release plateau (no more release): 3 h
[3]; Comfilcon A lenses, incubated 18 h in PBS solution
  amount loaded onto lens: 3.56±4.51 nmol/lens

## Benzalkonium chloride [Benzalkonium chloride (BAC)]
[8]
  cells killed: about 100%

## fluorescein isothiocyanate [Compound 7]
[2]; solution exchange rate 1 mL/h
  release at plateau: ~60%
  release profile: typical burst release profile
  time to reach release plateau (no more release): ≤ 2 h
[2]; solution exchange rate 6 mL/h
  time to reach release plateau: ≤ 50 min
